# Results from patent US7687536B2, “Aminocycloalkyl cinnamide compounds for arrhythmia and as analgesics and anesthetics” (Cardiome Pharma Corp., priority 1999, dated 2010).
# Columns and labels:
# [1] = test system: sustained AF maintained during continuous vagal nerve stimulation; experiment: Canine vagal-AF model; format: in vivo, dog
# Method: Mongrel dogs of either sex weighing 15-49 kg were anesthetized with morphine (2 mg/kg im initially, followed by 0.5 mg/kg IV every 2 h) and α-chloralose (120 mg/kg IV followed by an infusion of 29.25 mg/kg/h; St.-Georges et al., 1997). Dogs were ventilated mechanically with room air supplemented with oxygen via an endotracheal tube at 20 to 25 breaths/minute with a tidal volume obtained from a nomogram. Arterial blood gases were measured and kept in the physiological range (SAO2>90%, pH 7.30-7.45). Catheters were inserted into the femoral artery for blood pressure recording and blood gas measurement, and into both femoral veins for drug administration and venous sampling. Catheters were kept patent with heparinized 0.9% saline solution. Body temperature was maintained at 37-40° C. with a heating blanket.
# The heart was exposed via a medial thoracotomy and a pericardial cradle was created. Three bipolar stainless steel, Teflon™-coated electrodes were inserted into the right atria for recording and stimulation, and one was inserted into the left atrial appendage for recording. A programmable stimulator (Digital Cardiovascular Instruments, Berkeley, Calif.) was used to stimulate the right atrium with 2 ms, twice diastolic threshold pulses. Two stainless steel, Teflon™-coated electrodes were inserted into the left ventricle, one for recording and the other for stimulation. A ventricular demand pacemaker (GBM 5880, Medtronics, Minneapolis, Minn.) was used to stimulate the ventricles at 90 beats/minute when (particular during vagal-AF) the ventricular rate became excessively slow. A P23 ID transducer, electrophysiological amplifier (Bloom Associates, Flying Hills, Pa.) and paper recorder (Astromed MT-95000, Toronto, ON, Canada) were used to record ECG leads II and III, atrial and ventricular electrograms, blood pressure and stimulation artefacts. The vagi were isolated in the neck, doubly-ligated and divided, and electrodes inserted in each nerve (see below). To block changes in β-adrenergic effects on the heart, nadolol was administered as an initial dose of 0.5 mg/kg iv, followed by 0.25 mg/kg IV every two hours.
# Drug effects to terminate sustained AF maintained during continuous vagal nerve stimulation were assessed. Unipolar hook electrodes (stainless steel insulated with Teflon™, coated except for the distal 1-2 cm) were inserted via a 21 gauge needle within and parallel to the shaft of each nerve. In most experiments, unipolar stimuli were applied with a stimulator (model DS-9F, Grass Instruments, Quincy, Mass.) set to deliver 0.1 ms square-wave pulses at 10 Hz and a voltage 60% of that required to produce asystole. In some experiments, bipolar stimulation was used. The voltage required to produce asystole ranged between 3-20 volts. Under control conditions, a short burst of rapid atrial pacing (10 Hz, four times diastolic threshold) was delivered to induce AF which was ordinarily sustained for more than 20 minutes. The vagal stimulation voltage was adjusted under control conditions, and then readjusted after each treatment to maintain the same bradycardic effect. AF was defined as rapid (>500 minute under control conditions), irregular atrial rhythm with varying electrogram morphology.
# Diastolic threshold current was determined at a basic cycle length of 300 ms by increasing the current 0.1 mA incrementally until stable capture was obtained. For subsequent protocols current was set to twice diastolic threshold. Atrial and ventricular ERP was measured with the extrastimulus method, over a range of S1S2 intervals at a basic cycle length of 300 ms. A premature extrastimulus S2 was introduced every 15 basic stimuli. The S1S2 interval was increased in 5 ms increments until capture occurred, with the longest S1S2 interval consistently failing to produce a propagated response defining ERP. Diastolic threshold and ERP were determined in duplicate and averaged to give a single value. These values were generally within 5 ms. […]
# AF = details: cited from earlier work
# [2] = test system: cardiac arrhythmias in conscious rats subjected to coronary artery occlusion; experiment: Antiarrhythmic efficacy: coronary artery occlusion in conscious rats; format: in vivo, rat; details: infusion rate which reduces the arrhythmia score to 50% of that of vehicle-treated animals
# Method: Antiarrhythmic efficacy was assessed by investigating the effect of a compound on the incidence of cardiac arrhythmias in conscious rats subjected to coronary artery occlusion. Rats weighing 200-300 gms were subjected to preparative surgery and assigned to groups in a random block design. In each case, the animal was anesthetized with halothane during surgical preparation. The left femoral artery was cannulated for measurement of mean arterial blood pressure and withdrawal of blood sample. The left femoral vein was also cannulated for injection of drugs. The thoracic cavity was opened and a polyethylene occluder loosely placed around the left anterior descending coronary artery. The thoracic cavity was then closed. ECG was recorded by insertion of electrodes placed along the anatomical axis of the heart. All cannulae and electrode leads were exteriorized in the mid scapular region. […] ECG, arrhythmias, blood pressure, heart rate and mortality were monitored for 30 minutes after occlusion. Arrhythmias were recorded as ventricular tachycardia (VT) and ventricular fibrillation (VF) and scored according to Curtis, M. J. and Walker, M. J. A., Cardiovasc. […]
# Occlusion is associated with increases in R-wave height and “S-T” segment elevation; and an occluded zone (measured after death by cardiogreen dye perfusion) in the range of 25%-50% of total left-ventricular weight. […]
# cardiac sodium channel = molecular target: T1, cardiac sodium channel (Rattus norvegicus, UniProt P15389); experiment: Assessment of sodium channel blockage: electrical stimulation of left ventricle in rats; format: in vivo; details: infusion rate required to elicit a 25% increase from control
# T1 construct: from tissue; host or cells: heart (left ventricle) of the living rat, in vivo
# T1 sequence (P15389 whole entry, the tested form may be a part): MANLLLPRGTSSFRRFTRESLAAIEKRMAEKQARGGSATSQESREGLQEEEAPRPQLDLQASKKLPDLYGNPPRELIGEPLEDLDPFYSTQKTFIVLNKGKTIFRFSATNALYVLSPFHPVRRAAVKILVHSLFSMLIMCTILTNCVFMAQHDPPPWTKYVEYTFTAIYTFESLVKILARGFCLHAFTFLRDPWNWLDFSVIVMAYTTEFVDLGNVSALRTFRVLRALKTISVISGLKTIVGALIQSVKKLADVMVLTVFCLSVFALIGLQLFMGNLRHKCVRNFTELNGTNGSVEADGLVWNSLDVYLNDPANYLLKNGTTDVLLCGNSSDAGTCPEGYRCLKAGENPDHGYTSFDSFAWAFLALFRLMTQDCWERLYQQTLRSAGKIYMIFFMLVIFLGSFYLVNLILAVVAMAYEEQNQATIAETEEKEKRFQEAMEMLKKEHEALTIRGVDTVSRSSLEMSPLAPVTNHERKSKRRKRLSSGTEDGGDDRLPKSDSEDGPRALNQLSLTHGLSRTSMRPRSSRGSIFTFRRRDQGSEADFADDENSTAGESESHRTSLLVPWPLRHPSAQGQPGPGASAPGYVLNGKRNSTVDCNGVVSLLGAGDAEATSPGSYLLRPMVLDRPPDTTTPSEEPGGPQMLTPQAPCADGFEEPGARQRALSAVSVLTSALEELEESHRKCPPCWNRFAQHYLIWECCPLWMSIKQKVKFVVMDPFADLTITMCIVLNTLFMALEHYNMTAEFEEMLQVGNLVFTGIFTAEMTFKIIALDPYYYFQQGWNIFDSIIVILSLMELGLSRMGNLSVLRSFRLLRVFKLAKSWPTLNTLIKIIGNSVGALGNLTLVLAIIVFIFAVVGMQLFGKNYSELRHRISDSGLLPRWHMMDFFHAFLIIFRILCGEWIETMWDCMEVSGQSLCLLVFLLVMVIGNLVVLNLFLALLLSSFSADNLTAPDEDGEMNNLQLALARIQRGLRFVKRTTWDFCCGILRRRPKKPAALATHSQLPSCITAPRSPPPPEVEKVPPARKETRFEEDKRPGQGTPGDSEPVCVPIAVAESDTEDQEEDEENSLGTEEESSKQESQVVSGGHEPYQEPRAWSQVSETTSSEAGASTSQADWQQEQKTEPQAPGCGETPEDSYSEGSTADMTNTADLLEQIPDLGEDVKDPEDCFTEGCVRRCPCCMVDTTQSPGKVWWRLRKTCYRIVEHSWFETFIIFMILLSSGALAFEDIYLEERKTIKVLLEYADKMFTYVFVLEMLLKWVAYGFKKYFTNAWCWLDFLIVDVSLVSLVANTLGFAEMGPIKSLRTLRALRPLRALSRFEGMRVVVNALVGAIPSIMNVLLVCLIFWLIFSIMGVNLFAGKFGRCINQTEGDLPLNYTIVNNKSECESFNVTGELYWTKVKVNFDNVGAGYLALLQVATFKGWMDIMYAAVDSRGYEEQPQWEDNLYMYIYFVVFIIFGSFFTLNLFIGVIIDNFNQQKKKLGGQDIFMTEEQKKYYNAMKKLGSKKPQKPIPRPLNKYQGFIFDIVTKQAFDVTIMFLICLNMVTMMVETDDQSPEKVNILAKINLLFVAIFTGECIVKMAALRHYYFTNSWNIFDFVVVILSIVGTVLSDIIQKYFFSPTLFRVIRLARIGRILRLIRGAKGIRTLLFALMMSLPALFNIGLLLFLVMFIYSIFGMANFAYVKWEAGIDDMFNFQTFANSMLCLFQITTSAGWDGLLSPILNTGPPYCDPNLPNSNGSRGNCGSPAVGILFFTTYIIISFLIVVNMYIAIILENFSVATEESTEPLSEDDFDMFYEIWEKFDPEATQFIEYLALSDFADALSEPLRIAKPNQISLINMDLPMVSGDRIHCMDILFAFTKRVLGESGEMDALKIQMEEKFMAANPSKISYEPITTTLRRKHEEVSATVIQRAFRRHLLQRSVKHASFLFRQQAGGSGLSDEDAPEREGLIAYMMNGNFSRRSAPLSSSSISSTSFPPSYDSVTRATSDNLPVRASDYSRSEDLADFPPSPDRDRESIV
# Method: Rats were prepared according to the preceding procedure. Two silver stimulating electrodes were inserted through the chest wall and implanted in the left ventricle. Square wave stimulation was used to determine threshold current for capture, ventricular fibrillation threshold current, and effective refractory period (Howard, P. G. and Walker, M. J. A., Proc. West. Pharmacol. Soc. 33:123-127 (1990)). Table 4 contains ED25 values for these indices of cardiac sodium channel blockage, where the ED25 is the infusion rate in micromol/kg/minute of compound required to elicit a 25% increase from control. The increases in refractoriness indicate ancillary blockage of potassium channels. The threshold current for capture is represented by “It”. The fibrillation threshold current is represented by “VFT”. The effective refracting period is represented by “ERP”.
# [3] = test system: ECG parameters (P-R, QRS, Q-T interval); experiment: Measurement of ECG parameters in pentobarbital anesthetized rats, bolus injections; format: in vivo, rat; details: bolus injection
# Method: Rats weighing 200-250 gms were used in this example. Animals were anesthetized with 60 mg/kg pentobarbital i.p. The carotid artery and jugular vein were cannulated for measurement of blood pressure and drug injection, respectively. ECG was recorded by insertion of electrodes placed along the anatomical axis of the heart. All compounds were given as bolus injections.
# Various ECG parameters were measured. Table 3 describes the results of the tests as ED25 (micromol/kg) which are the doses required to produce a 25% increase in the parameter measured (ne=not estimated). The increases in P-R interval and QRS interval indicate cardiac sodium channel blockage while the increase in Q-T interval indicates ancillary cardiac potassium channel blockage which is the property of a type 1a antiarrhythmic.
smiles,measurement,setting,value
O=C(NCC1CCCCN1)c1cc(OCC(F)(F)F)ccc1OCC(F)(F)F (stereo not shown) [Flecainide],Median dose required for termination of AF,[1]; IV,2.5 µmol/kg
same,effect on blood pressure or heart rate,[1]; at the median dose for termination of vagal-AF,did not reduce blood pressure or heart rate
same,prevented induction of AF,[1]; dogs in which AF was induced under control conditions during ERP determination with vagal nerve stimulation,2/4
same,AF cycle length (AFCL),"[1]; during vagal nerve stimulation, prior to termination of AF",prolonged AFCL
same,Mean dose required for termination of AF,"[1]; mean±SEM, IV",4 ± 2 µmol/kg
same,efficacy for terminating AF (dogs terminated/dogs tested),[1]; vagal-AF,5/6
same,efficacy for terminating AF (percent of dogs),[1]; vagal-AF,80%
CCCCCCCN(CC)CCCC(O)c1ccc(NS(C)(=O)=O)cc1 (stereo not shown) [ibutilide],patients requiring cardioversion for refractory ventricular arrhythmias,AF,~1.7%
same,risk of ventricular proarrhythmia,AF; patients,~4.4%
"CN(C(=O)C=Cc1ccc(Cl)c(Cl)c1)C1CCCC1N1CCCC1.Cl [Compound 3, (1R,2R)/(1S,2S)≠N-METHYL-N-[2-(1-PYRROLIDINYL)CYCLOPENTYL]3,4-DICHLOROCINNAMIDE MONOHYDROCHLORIDE]",ED50AA,[2],2 µmol/kg/min
same,ED25 ERP (effective refractory period),cardiac sodium channel,2 µmol/kg/min
same,ED25 It (threshold current for capture),cardiac sodium channel,4 µmol/kg/min
same,ED25 VFT (fibrillation threshold current),cardiac sodium channel,12 µmol/kg/min
same,ED25 PR,[3]; dose required to produce a 25% increase in P-R interval,8 µmol/kg
same,ED25 QT,[3]; dose required to produce a 25% increase in Q-T interval,5 µmol/kg
same,ED25 QRS,[3]; dose required to produce a 25% increase in QRS interval,12 µmol/kg
